# Experimental data as given in patent US10208059B2, “Heterocyclic modulators of HIF activity for treatment of disease” (Board of Regents, University of Texas System, priority 2012, dated 2019).
# “Also recorded” adds a separate entry of the source.
# Tests used:
# 293T-HRE-GFP-luc cells = test: Cell-based reporter assay for IC50 determinations; conditions: hypoxia 6 hrs (1% O2), luminescence, read-out: IC50 Classification
# Method in brief: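 IC50 comes from a four-parameter logistic fit of luminescence from HRE-GFP-luc 293T cells. Compounds (1:3 series, 1:50 medium dilution) were preincubated 30 min under normoxia, followed by 6 h at 1% O2, 5% CO2, 37 °C, before Steadylite luciferase detection.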
# H460 xenografts = test: H460 non-small cell lung cancer xenograft model; type: in vivo, mice
# Procedure: H460 cells were implanted subcutaneously in CD-1 nude mice and treated with 150 mpk qdx14 PO of the compound of Example 2 delivered by oral gavage for 14 days. Animals were randomized into study groups and the study initiated when the average tumor volume was 400 mm^3. During treatment, tumor volume was measured three times per week to determine tumor growth over the course of the study (FIG. 6). Nine tumor bearing mice were included in each group. On day 15, 3 hours prior to take down, hypoxyprobe (Hypoxyprobe, Inc. cat # HP3) was injected into mice. Tumor sections were stained (dark areas) for the level of hypoxia utilizing an anti-hypoxyprobe antibody and standard IHC methods (FIG. 7). The same tumors were stained for the expression of HIF regulated gene carbonic anhydrase IX (CA9) using standard IHC methods (FIG. 8).
# Gli56 cells = test: Glioblastoma cellular assay, cell numbers; type: cell-based; conditions: various concentrations
# From the text: (§1) NB-1, Gli56, and D423 cell lines are deleted for ENO-1 (GLI56 and D423) or PGD, which renders them with reduced glycolytic capacity (Muller, F. et al., Nature, 2012, 488, 337-42).
# D423 cells = test: Glioblastoma cellular assay, cell numbers; type: cell-based; conditions: various concentrations
# From the text: as §1
# NB-1 cells = test: Neuroblastoma cellular assay, cell numbers; type: cell-based; conditions: various concentrations
# From the text: as §1
# OCI-AML3 cells = test: Acute myeloid leukemia cell viability; type: cell-based; conditions: various concentrations, 2 days, normalized to DMSO control
# Procedure: (§2) The OCI-AML3 cell line was treated with various concentrations of compound for 2 days and the percent of viable cells normalized to control cells treated with DMSO (FIG. 9). OCI-AML3 cells constitutively expressing luciferase were tail vein injected in NSG nude mice. 17 days after cell injection, luciferin was injected into animals and luciferase signal was measured using an IVIS imaging system to determine tumor burden and for randomization of subjects into study groups. On day 18, animals began receiving daily oral doses of vehicle or 10 mpk of the compound of Example 80 which continued throughout the study. On day 28, imaging was performed again to determine tumor burden (FIG. 10).
# [1] = system: OCI-AML3 models in NSG mice; test: Human leukemia model, OCI-AML3 in NSG mice; type: in vivo; conditions: 10 mg/kg daily oral
# Procedure: as §2
# NB-1 xenografts = test: NB-1 xenograft model; type: in vivo; conditions: daily oral 10 mg/kg (b1183 says 40 mpk), CD-1 nude mice
# Procedure: To establish activity and provide in vivo proof of concept, NB-1 cells were implanted into CD-1 nude mice and treated with 40 mpk of the compound of Example 80 po or vehicle daily when tumors reached 400-500 mm^3. Tumor size was measured 3×/week using caliper measurements (FIG. 5).
# TMD8 cells = test: Diffuse large B-cell lymphoma (DLBCL) assay, viable cells; type: cell-based; conditions: varying concentrations, 7 days, Guava ViaCount
# Procedure: Diffuse Large B-Cell Lymphoma (DLBCL) Assay
# Equal number of TMD8 cells were plated and treated with varying concentrations of the compound of Example 80 for 7 days. Percent of viable cells was determined using Guava ViaCount reagents (EMD Millipore cat #4000-0040) that contains proprietary dyes that enable the determination of the number of live and dead cells in a sample (FIG. 1).
Compound,IC50 (293T-HRE-GFP-luc cells) [nM],"tumor growth of H460 xenografts (H460 xenografts; 150 mg/kg daily oral for 14 days, CD-1 nude mice)","level of HIF regulated gene carbonic anhydrase IX (CAIX/CA9) in H460 xenografts (IHC) (H460 xenografts; 150 mg/kg daily oral, day 15)","level of hypoxia in H460 xenografts (hypoxyprobe IHC) (H460 xenografts; 150 mg/kg daily oral, day 15)",cell death in Gli56 cells (Gli56 cells),number of viable Gli56 cells (Gli56 cells),number of viable D423 cells (D423 cells),cell death in NB-1 cells (NB-1 cells),number of viable NB-1 cells (NB-1 cells),number of viable OCI-AML3 cells (OCI-AML3 cells),disease burden (tumor burden) by IVIS imaging [1],survival ([1]; relative to vehicle),tumor growth of NB-1 xenografts (NB-1 xenografts),number/percent of viable TMD8 cells (TMD8 cells)
"Cc1nc(-c2nc(-c3ccc(OC(F)(F)F)cc3)no2)nn1Cc1ccnc(N2CCN(C)CC2)c1 [Example 2, 5-(5-Methyl-1-((2-(4-methylpiperazin-1-yl)pyridin-4-yl)methyl)-1H-1,2,4-triazol-3-yl)-3-(4-(trifluoromethoxy)phenyl)-1,2,4-oxadiazole]",< 100,inhibited the growth; also recorded: reduces the tumor growth,elimination of hypoxia and CA9 protein expression; also recorded: reduce the level of CAIX,elimination of hypoxia; also recorded: reduce the level of hypoxia,readily apparent,significantly reduced,significantly reduced; also recorded: reduced number of viable cells,readily apparent,significantly reduced; also recorded: reduced number of viable cells,–,–,–,–,–
"Cc1nc(-c2nc(-c3ccc(OC(F)(F)F)cc3)no2)nn1Cc1cccc(N2CCC(S(C)(=O)=O)CC2)c1 [Example 80, 4-Methanesulfonyl-1-{3-[(5-methyl-3-{3-[4-(trifluoromethoxy)phenyl]-1,2,4-oxadiazol-5-yl}-1H-1,2,4-triazol-1-yl)methyl]phenyl}piperidine]",< 100,–,–,–,readily apparent,significantly reduced; also recorded: reduced number of viable cells,significantly reduced; also recorded: reduced number of viable cells,readily apparent,significantly reduced; also recorded: reduced number of viable cells,reduced number of viable cells,reduces disease burden,significantly increased their survival; also recorded: extends survival,reduces the tumor growth,respond robustly; also recorded: reduced number of viable cells
"Cc1nc(-c2cc(-c3ccc(OC(F)(F)F)cc3)on2)nn1Cc1ccnc(N2CCN(C)CC2)c1 [Example 163, 1-methyl-4-{4-[(5-methyl-3-{5-[4-(trifluoromethoxy)phenyl]-1,2-oxazol-3-yl}-1H-1,2,4-triazol-1-yl)methyl]pyridin-2-yl}piperazine]",< 100,–,–,–,–,–,–,–,–,–,–,–,–,–
